Assay results published in patent publication US12168086B2, “Hemostatic devices and methods of use” (priority 2016, dated 2024).

Key:
myofibroblast formation = settings: Ajmal et al. (2003); cited from earlier work
[1] = time to reach plasma concentrations; settings: in vivo
blood clotting = settings: in vitro, 1.2 mg of TXA alone
[2] = PBS pH 7.4 without TXA, with TXA 0.05 mg/mL or 5 mg/mL, over 25 hours

O=S(=O)([O-])CCS.[Na+] [MESNA, sodium 2-mercaptoethane sulfonate]
myofibroblast formation (myofibroblast formation): diminish myofibroblast formation

NC[C@H]1CC[C@H](C(=O)O)CC1 [tranexamic acid]
time to reach plasma concentrations [1]: 5 to 15 min
time to induce blood clotting (blood clotting): about 19 minutes

CO[C@H]1/C=C/O[C@@]2(C)Oc3c(C)c(O)c4c(O)c(c(/C=N/N5CCN(C)CC5)c(O)c4c3C2=O)NC(=O)/C(C)=C\C=C\[C@H](C)[C@H](O)[C@@H](C)[C@@H](O)[C@@H](C)[C@H](OC(C)=O)[C@@H]1C [rifampin]
elution rate from p22-27.5 polymer [2]: not affected by the presence of TXA
